Where two headings read alike, the source gives them in different places. Starred links: 1 amine or outer side, 2 acyl side, 3 side chain; linkers in the order of their positions; H or OH if unused. Non-standard residues stand in square brackets, D forms with d. Residues, ends and D or L forms follow the SMILES beside them. Groups on a side chain read outwards from the residue. No end group written: not given here. *: point of attachment. C18 diacid = O=C(O)CCCCCCCCCCCCCCCCC(=O)*; γGlu = O=C(O)[C@H](CCC(=O)[*:2])N[*:1]; Palmitoyl = CCCCCCCCCCCCCCCC(=O)*; AEEA = NCCOCCOCC(=O)O; Aib = CC(C)(N)C(=O)O
B1: peptide of SEQ ID NO: 205 (peptide)
peptide: IVLSLD[dV]PIKLK([AEEA-AEEA-γGlu-Palmitoyl])QILLKQERQK[Aib]QREQAEKNKQILAQV-NH2
modifications: N-terminus assumed
SMILES: CCCCCCCCCCCCCCCC(=O)N[C@@H](CCC(=O)NCCOCCOCC(=O)NCCOCCOCC(=O)NCCCC[C@H](NC(=O)[C@H](CC(C)C)NC(=O)[C@H](CCCCN)NC(=O)[C@@H](NC(=O)[C@@H]1CCCN1C(=O)[C@H](NC(=O)[C@H](CC(=O)O)NC(=O)[C@H](CC(C)C)NC(=O)[C@H](CO)NC(=O)[C@H](CC(C)C)NC(=O)[C@@H](NC(=O)[C@@H](N)[C@@H](C)CC)C(C)C)C(C)C)[C@@H](C)CC)C(=O)N[C@@H](CCC(N)=O)C(=O)N[C@H](C(=O)N[C@@H](CC(C)C)C(=O)N[C@@H](CC(C)C)C(=O)N[C@@H](CCCCN)C(=O)N[C@@H](CCC(N)=O)C(=O)N[C@@H](CCC(=O)O)C(=O)N[C@@H](CCCNC(=N)N)C(=O)N[C@@H](CCC(N)=O)C(=O)N[C@@H](CCCCN)C(=O)NC(C)(C)C(=O)N[C@@H](CCC(N)=O)C(=O)N[C@@H](CCCNC(=N)N)C(=O)N[C@@H](CCC(=O)O)C(=O)N[C@@H](CCC(N)=O)C(=O)N[C@@H](C)C(=O)N[C@@H](CCC(=O)O)C(=O)N[C@@H](CCCCN)C(=O)N[C@@H](CC(N)=O)C(=O)N[C@@H](CCCCN)C(=O)N[C@@H](CCC(N)=O)C(=O)N[C@H](C(=O)N[C@@H](CC(C)C)C(=O)N[C@@H](C)C(=O)N[C@@H](CCC(N)=O)C(=O)N[C@H](C(N)=O)C(C)C)[C@@H](C)CC)[C@@H](C)CC)C(=O)O

How the values were obtained:
human CRF2α receptor = molecular target: T1, human CRF2α receptor (Homo sapiens, UniProt Q13324); assay: cAMP agonism at human CRF2 α receptor in TeloHEAC cells (Example 7); assay type: cell-based; details: cAMP HTRF, TeloHEAC cells stably expressing human CRF2 α
T1 construct: expressed in transfected cells; host or cells: TeloHEAC
T1 sequence (Q13324 1-411): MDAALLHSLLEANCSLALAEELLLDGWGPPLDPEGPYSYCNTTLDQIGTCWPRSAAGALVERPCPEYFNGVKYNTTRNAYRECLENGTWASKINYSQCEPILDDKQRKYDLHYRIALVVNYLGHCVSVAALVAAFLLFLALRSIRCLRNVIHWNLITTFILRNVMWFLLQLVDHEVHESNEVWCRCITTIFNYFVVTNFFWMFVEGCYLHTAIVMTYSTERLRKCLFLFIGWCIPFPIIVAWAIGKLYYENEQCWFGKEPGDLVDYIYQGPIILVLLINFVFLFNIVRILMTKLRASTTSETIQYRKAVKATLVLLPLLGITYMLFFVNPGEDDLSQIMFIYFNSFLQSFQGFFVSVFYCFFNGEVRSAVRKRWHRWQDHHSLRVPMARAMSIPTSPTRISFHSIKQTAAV
Method in brief: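 Thawed frozen stably transfected cells in HBSS/20 mM HEPES (0% or 0.1% HSA) plus 2 mM IBMX were exposed to compound at 2000 cells/well for 30 min at room temperature. Intracellular cAMP was read by HTRF (665/620 nm ratio) after 1 h lysis; EC50 was derived with 1000 nM urocortin 2 set as 100%.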

[1] = Solubility in buffer systems by UPLC-UV (Example 13); assay type: physicochemical; details: pH 4.5, Solubility in Buffer B [mg/ml]
Method in brief: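 The supernatant was diluted 1:10 and quantified by UPLC-UV peak area against a reference standard curve, correcting for sequence-based extinction coefficients.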

[2] = Physical stability, dynamic light scattering assay (Example 15); assay type: physicochemical; details: Buffer B (100 mM acetate, pH 4.5, 2.7 mg/ml m-cresol)
Procedure: The physical stability of the compounds was also assessed using a dynamic light scattering assay.
In the present study, the physical stability of test compounds was assessed by determining the apparent hydrodynamic radius (Rh), the scattering intensity (I) and mass contribution (M) after synthesis (0 weeks) and after storage for 4 weeks at 40° C.
For each solution of test compound, the hydrodynamic radius Rh and the diffusion constant D (related via the Stokes-Einstein equation) were determined as an average over triplicates. Both parameters were determined at different compound concentrations (e.g., Rh1 and D1: 1 mg/ml and Rh5 and D5: 5 mg/ml, Rh10 and D10: 10 mg/mL) in the same buffer system. The difference of these parameters between low and high peptide concentration is a surrogate for the DLS interaction parameter kD. […] In addition, the hydrodynamic radius Rh and the corresponding Scattering Intensity (%) were determined as an average over duplicates. The target concentration was 300 μM. Therefore, solutions from solid samples were prepared in a buffer system with a concentration of 300 μM compound based on the previously determined % purity.
DLS measurements were performed on a DynaPro Plate Reader I (Wyatt Technology, Santa Barbara, CA, US) with an 837 nm laser light source at a scattering angle of 150°. The data were collected and processed with Dynamics V 7.8.1.3 or 7.8.2.18 software provided by Wyatt Technology.
Hydrodynamic radii were determined with non-negatively constrained least squares (NNLS) methods using DYNALS algorithms with regularization fit. […] Samples were tempered over 1 hour at +25° C. and visually inspected before analysis.
Samples were mixed with the aid of a pipet tip. Measurements were performed in 5 replicates. […] The plate was centrifuged for 2 minutes at 600 rcf. After removing the sealing, the samples were measured at +25° C.

[3] = Physical stability, Thioflavin T fibrillation assay (Example 14); assay type: physicochemical; details: Buffer B: 100 mM acetate buffer, pH 4.5, 2.7 mg/ml m-cresol; 3 mg/ml; 37° C. shaking
Method in brief: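 Compounds at 3 mg/ml final in buffer were stressed at 37° C by repeated cycles of 10 s shaking at 960 rpm and 50 s rest. ThT fluorescence was read every 20 minutes in eight replicates, with fluorescence increase and lag time indicating fibrillation tendency.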

rat CRF2R α receptor = assay: cAMP agonism at rat CRF2R α receptor in A7R5 rat aortic smooth muscle cells (Example 8); assay type: cell-based; details: cAMP HTRF, A7R5 rat aortic smooth muscle cell line, 0% HSA
Method in brief: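 Thawed cryopreserved A7R5 cells in HBSS/20 mM HEPES (0 or 0.1% HSA) with 2 mM IBMX, 2000 cells/well, were exposed to compound for 30 min at room temperature. cAMP was read by HTRF (665/620 nm ratio) after 1 h with lysis reagents. Activity was normalised to 1000 nM urocortin 2 as 100%, and EC50 was taken as the concentration giving 50% of maximal activation.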

[4] = molecular target: human corticotropin-releasing factor 2α (CRF2α receptor) (human), Q13324; assay: cell-based or functional assay

| Molecule | EC50 (human CRF2α receptor; 0% HSA, read-out: EC50 [nM], 0% HSA) [nM] | EC50 (human CRF2α receptor; 0.1% HSA, read-out: EC50 [nM], 0.1% HSA) [nM] | solubility at 1 h [1] [µg/mL] | Apparent Rh [nm] 0 weeks ([2]; 0 weeks) [nm] | Scattering Intensity (I) [%] 0 weeks ([2]; 0 weeks) [%] | Apparent Rh [nm] 4 weeks ([2]; 4 weeks at 40° C.) [nm] | Scattering Intensity (I) [%] 4 weeks ([2]; 4 weeks at 40° C.) [%] | Increase in FI (fluorescence intensity) [3] | Lag time [3] [h] | EC50 (rat CRF2R α receptor) [nM] | EC50 [nM], 0% HSA (cAMP, HTRF) [4] [nM] |
| --- | --- | --- | --- | --- | --- | --- | --- | --- | --- | --- | --- |
| CC[C@H](C)[C@H](N)C(=O)N[C@H](C(=O)N[C@@H](CC(C)C)C(=O)N[C@@H](CO)C(=O)N[C@@H](CC(C)C)C(=O)N[C@@H](CC(=O)O)C(=O)N[C@@H](C(=O)N1CCC[C@H]1C(=O)N[C@H](C(=O)N[C@@H](CCCCN)C(=O)N[C@@H](CC(C)C)C(=O)N[C@@H](CCCCNC(=O)COCCOCCNC(=O)COCCOCCNC(=O)CC[C@H](NC(=O)CCCCCCCCCCCCCCCCC(=O)O)C(=O)O)C(=O)N[C@@H](CCC(N)=O)C(=O)N[C@H](C(=O)N[C@@H](CC(C)C)C(=O)N[C@@H](CC(C)C)C(=O)N[C@@H](CCC(=O)O)C(=O)N[C@@H](CCC(N)=O)C(=O)N[C@@H](C)C(=O)N[C@@H](CCCNC(=N)N)C(=O)N[C@@H](CCC(N)=O)C(=O)N[C@@H](CCCCN)C(=O)NC(C)(C)C(=O)N[C@@H](CCC(N)=O)C(=O)N[C@@H](CCCNC(=N)N)C(=O)N[C@@H](CCC(=O)O)C(=O)N[C@@H](CCC(N)=O)C(=O)N[C@@H](C)C(=O)N[C@@H](CCC(=O)O)C(=O)N[C@@H](CCCCN)C(=O)N[C@@H](CC(N)=O)C(=O)N[C@@H](CCCCN)C(=O)N[C@@H](CCCNC(=N)N)C(=O)N[C@H](C(=O)N[C@@H](CC(C)C)C(=O)N[C@@H](CCC(=O)O)C(=O)N[C@@H](CCCNC(=N)N)C(=O)N[C@H](C(N)=O)C(C)C)[C@@H](C)CC)[C@@H](C)CC)[C@@H](C)CC)C(C)C)C(C)C [compound 142] (H-IVLSLD[dV]PIKLK([AEEA-AEEA-γGlu-C18 diacid])QILLEQARQK[Aib]QREQAEKNKRILERV-NH2; N-terminus assumed) | 0.05 | 1.42 | > 8700 | 3.63 ± 0.14 | 100 ± 0 | 3.59 ± 0.04 | 100 ± 0 | No | >45 | 0.2 |  |
| B1 |  |  |  |  |  |  |  |  |  |  | 0.32 |
